Measurements taken from US20200063169A1, “METHODS AND COMPOSITIONS FOR THE PRODUCTION OF LIPIDS” (THE UNIVERSITY OF BRITISH COLUMBIA, priority 2017, published 2020).

Assays:
FcrA [1] = experiment: FcrA activity assays (spectrophotometric, NADPH oxidation / DTNB); format: biochemical, Rhodococcus jostii RHA1; settings: for Specific Activity: 5 μM acyl-CoA, 200 μM NADPH, pH 7.0, 25° C.
Protocol: FcrA activity was evaluated using two spectrophotometric assays. Assays were performed at 25° C. in 1 mL 20 mM MOPS, 80 mM NaCl, pH 7.0 (I=0.1 M) containing 5 μM acyl-CoA and 200 μM NADPH. Reactions were initiated by the addition of FcrA to a final concentration of 0.5 to 2 μM. In one assay, the oxidation of NADPH was followed at 340 nm (E=6.3 mM mM^−1 cm^−1 [43]). In the second assay, the reaction mixture also contained 0.1 mg/mL DTNB, and the formation of NTB^2− was followed at 412 nm (E=14.15 mM^−1 cm^−1 for NTB^2−[44]). Reaction rates were calculated from progress curves using Cary WinUV Kinetics Application (Agilent). The pH-dependence of the reaction was evaluated using the DTNB assay and a series of 20 mM Good's buffers (MES, MOPS, HEPPS, or TAPS), 80 mM NaCl (I=0.1 M), pH 6 to 9.
Because related two-domain enzymes completely reduce acyl-CoAs to fatty alcohols and have been used in biotechnology applications, further efforts were focused on exploring the function of FcrA, To investigate the activity of FcrA, it was first produced as a C-terminally His-tagged protein in RHA1 and purified to greater than 95% apparent homogeneity (FIG. 4A). The molecular mass of FcrA-His6 was 73627 Da, which corresponds to the mass of the protein (73758 Da) less the N-terminal methionine (131 Da). Then, to evaluate the ability of FcrA to catalyze the formation of fatty alcohols, 1.4 μM FcrA was incubated with 400 μM NADPH and 100 μM oleoyl-CoA in 1 mL 20 mM Tris-HCl, pH 7.0, 50 mM NaCl for 20 h at room temperature. The reaction was quenched with 1 mL saturated NaCl and 100 μM of tetradecanol was added as a standard. […] No alcohol was detected in control reactions in which FcrA was omitted. […] As with previously characterized FARs, activity was maximal at pH 7.0. […] Among the tested substrates, FcrA had highest specific activity for stearoyl-CoA (C18-CoA), reducing it at a rate of 45±3 nmol/mg·min. The specific activity of FcrA dropped off with decreasing chain length of the acyl-CoA substrate (Table 2).

FcrA [2] = experiment: FcrA fatty alcohol formation, reaction products analysed by GC/MS; format: biochemical, Rhodococcus jostii RHA1; settings: 1.4 μM FcrA, 400 μM NADPH, 100 μM oleoyl-CoA, pH 7.0, 20 h, room temperature
Protocol: To analyze fatty alcohols produced in vitro, quenched reactions of 2 mL were extracted with 5 mL of 2:1 chloroform:methanol (v/v). The organic phase was collected, washed once with 1:1 H2O:methanol, and three times with H2O. The organic phase was removed and dried under nitrogen stream. The extract was suspended in pyridine and derivatized with […] for 1 h at 60° C. Derivatized extracts were analyzed by gas chromatography-mass spectrometry (GC/MS) as described below.
Analyses were performed using an Agilent 6890n gas chromatograph system fitted with an HP-5 MS 30 m×0.25 mm capillary column (Hewlett-Packard) and an Agilent 5973n mass-selective detector. […] WEs were further identified by comparison to an authentic stearyl stearate standard and were quantified using a standard curve generated using palmityl myristate (Nu-Chek Prep).
Because related two-domain enzymes completely reduce acyl-CoAs to fatty alcohols and have been used in biotechnology applications, further efforts were focused on exploring the function of FcrA, To investigate the activity of FcrA, it was first produced as a C-terminally His-tagged protein in RHA1 and purified to greater than 95% apparent homogeneity (FIG. 4A). […] No alcohol was detected in control reactions in which FcrA was omitted. […]

With `CCCCCCCCCCCC(=O)SCCNC(=O)CCNC(=O)[C@H](O)C(C)(C)COP(=O)(O)OP(=O)(O)OC[C@H]1O[C@@H](n2cnc3c(N)ncnc32)[C@H](O)[C@@H]1OP(=O)(O)O` [Lauroyl-CoA] the “Specific Activity” value (FcrA [1]; FcrA with acyl-CoA substrate) was 1.5 ± 0.3 nmol/min/(mg protein).
For `NC(=O)C1=CN([C@@H]2O[C@H](COP(=O)(O)OP(=O)(O)OC[C@H]3O[C@@H](n4cnc5c(N)ncnc54)[C@H](O)[C@@H]3O)[C@@H](O)[C@H]2O)C=CC1` [NADH], the “FcrA activity with cofactor in place of NADPH” value (FcrA [1]; NADPH substituted with NADH) was “no activity was detected”.
For `CCCCCCCC/C=C\CCCCCCCC(=O)SCCNC(=O)CCNC(=O)[C@H](O)C(C)(C)COP(=O)(O)OP(=O)(O)OC[C@H]1O[C@@H](n2cnc3c(N)ncnc32)[C@H](O)[C@@H]1OP(=O)(O)O` [Oleoyl-CoA], the “Specific Activity” value (FcrA [1]; FcrA with acyl-CoA substrate) was 41 ± 1 nmol/min/(mg protein), the “rate of reduction by FcrA compared with stearoyl-CoA” value (FcrA [1]; monounsaturated acyl-CoA substrate) was “reduced at a similar rate to stearoyl-CoA” and the “conversion of acyl-CoA to fatty alcohol by FcrA” value (FcrA [2]) was “converted oleoyl-CoA to oleyl alcohol”.
`CCCCCCCCCCCCCCCC(=O)SCCNC(=O)CCNC(=O)[C@H](O)C(C)(C)COP(=O)(O)OP(=O)(O)OC[C@H]1O[C@@H](n2cnc3c(N)ncnc32)[C@H](O)[C@@H]1OP(=O)(O)O` [Palmitoyl-CoA] was tested, and the “Specific Activity” value (FcrA [1]; FcrA with acyl-CoA substrate) was 7.0 ± 0.1 nmol/min/(mg protein).
`CCCCCCCCCCCCCCCCCC(=O)SCCNC(=O)CCNC(=O)[C@H](O)C(C)(C)COP(=O)(O)OP(=O)(O)OC[C@H]1O[C@@H](n2cnc3c(N)ncnc32)[C@H](O)[C@@H]1OP(=O)(O)O` [Stearoyl-CoA] was tested, and the “specific activity (rate of reduction by FcrA)” value (FcrA [1]; FcrA with acyl-CoA substrate) was 45 ± 3 nmol/mg/min and the “Specific Activity” value (FcrA [1]; FcrA with acyl-CoA substrate) was 45 ± 3 nmol/min/(mg protein).
